Type in all cases: cell-based
One experiment addresses T1, THIK-1 (mKCNK13) (Mus musculus, UniProt Q8R1P5).
T1 construct: gene Kcnk13
T1 sequence (Q8R1P5 1-405): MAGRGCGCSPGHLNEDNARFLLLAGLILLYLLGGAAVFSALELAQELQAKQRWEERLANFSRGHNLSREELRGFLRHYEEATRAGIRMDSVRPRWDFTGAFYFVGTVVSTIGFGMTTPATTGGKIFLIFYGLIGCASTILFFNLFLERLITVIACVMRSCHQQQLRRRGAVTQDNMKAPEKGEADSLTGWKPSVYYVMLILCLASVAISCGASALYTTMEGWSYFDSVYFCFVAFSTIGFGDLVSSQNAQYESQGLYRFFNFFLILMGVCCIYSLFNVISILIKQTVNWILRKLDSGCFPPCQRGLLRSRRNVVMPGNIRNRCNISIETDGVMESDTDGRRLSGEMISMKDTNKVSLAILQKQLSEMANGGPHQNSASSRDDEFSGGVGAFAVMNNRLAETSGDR
Put plainly: FLIPR thallium flux in HEK293 cells; patch clamp of WT and THIK-1 KO microglia.

In experiment [1] the target is T2, THIK-1 (hKCNK13) (Homo sapiens, UniProt Q9HB14).
T2 construct: gene KCNK13
T2 sequence (Q9HB14 1-408): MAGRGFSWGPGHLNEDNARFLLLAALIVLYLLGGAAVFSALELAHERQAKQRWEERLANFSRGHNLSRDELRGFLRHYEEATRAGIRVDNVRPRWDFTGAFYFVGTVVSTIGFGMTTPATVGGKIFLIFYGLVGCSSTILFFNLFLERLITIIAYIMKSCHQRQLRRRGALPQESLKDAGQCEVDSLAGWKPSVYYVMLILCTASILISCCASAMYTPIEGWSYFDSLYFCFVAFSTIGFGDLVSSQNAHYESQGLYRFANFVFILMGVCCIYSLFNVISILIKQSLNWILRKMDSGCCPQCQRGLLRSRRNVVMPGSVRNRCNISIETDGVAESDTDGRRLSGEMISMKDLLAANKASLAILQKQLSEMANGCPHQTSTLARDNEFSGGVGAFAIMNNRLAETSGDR
The experiment in a line: radioligand displacement on HEK-hKCNK13 membranes; IC50 from FLIPR thallium flux in HEK293; QPatch IC50 […].

For experiment [2], the target named is T2, THIK-1 (hKCNK13). Put plainly: reference blocker in FLIPR thallium flux and QPatch assays of hTHIK-1 HEK cells.

Each structure is given as a SMILES string. pIC50: −log10 of the molar value.

Consider two molecules from paper PMC10895799, “Differential contribution of THIK-1 K^+ channels and P2X7 receptors to ATP-mediated neuroinflammation by human microglia” (Journal of Neuroinflammation, 2024).

For `COc1ncc(Cl)cc1C(=O)N(C)Cc1cccc(F)c1` [C100814], the pIC50 is 7.21 against THIK-1 (mKCNK13) and 7.15 at THIK-1 (hKCNK13) [1].

As for `CCCCC[N+](CCCCC)(CCCCC)CCCCC` [tetrapentylammonium], the “reference blocker in FLIPR thallium flux and QPatch assays of hTHIK-1 HEK cells” value on THIK-1 (hKCNK13) [2] is on record as “normalised to controls using the nonselective THIK-1 antagonist tetrapentylammonium (TPA)”.
